Measurements published in patent US4292317A, “1,4-Dihydro-quinoline-3-carboxylic acid derivatives, process for their preparation and compositions containing them” (Laboratorie Roger Bellon, priority 1977, dated 1981).
In brackets after ≈: the same amount, converted by molar mass.

Experiments:
[1] = tested on: Arizona 6.211; experiment: M.I.C. in vitro, nutrient agar dilution; type: cell-based; settings: 18 h
Method: (§1) After sterilisation at 120° C., the pH was 6.8.
(§2) The minimum inhibitory concentrations (M.I.C.) were determined by dilution of the test compounds in this mixture, the concentration ranging from 0.05 to 100 μg/cm^3 in a geometric progression with a factor of 2.
(§3) The inoculation of the dishes was carried out by means of a multiple inoculator with 10^-3 dilutions of 18 hour old broth cultures.
(§4) The dishes were placed in an oven at 37° C. and the readings were taken afer an incubation time of 18 hours. The M.I.C. was taken as the lowest concentration which inhibited a culture.

[2] = tested on: B. subtilis; experiment: M.I.C. in vitro, nutrient agar dilution; type: cell-based; settings: Bacillus subtilis, 18 h
Method: as §1, §2, §3, §4

[3] = tested on: Bord. bronchis. 4.617; experiment: M.I.C. in vitro, nutrient agar dilution; type: cell-based; settings: 18 h
Method: as §1, §2, §3, §4

[4] = tested on: Esch. coli 111 B4; experiment: M.I.C. in vitro, nutrient agar dilution; type: cell-based; settings: Escherichia coli, 18 h; Table III; Esch. coli 111 B4
Method: as §1, §2, §3, §4

[5] = tested on: Esch. coli 54.127 O.M.S.; experiment: M.I.C. in vitro, nutrient agar dilution; type: cell-based; settings: Escherichia coli, 54.127O.M.S., 18 h
Method: as §1, §2, §3, §4

[6] = tested on: Esch. coli 95 I.S.M.; experiment: M.I.C. in vitro, nutrient agar dilution; type: cell-based; settings: Escherichia coli, 95I.S.M., 18 h
Method: as §1, §2, §3, §4

[7] = tested on: Klebs. pneum. 10.031; experiment: M.I.C. in vitro, nutrient agar dilution; type: cell-based; settings: 18 h
Method: as §1, §2, §3, §4

[8] = tested on: Pr. mirabilis Nig; experiment: M.I.C. in vitro, nutrient agar dilution; type: cell-based; settings: Proteus mirabilis, 18 h
Method: as §1, §2, §3, §4

[9] = tested on: Pr. morganii A.236; experiment: M.I.C. in vitro, nutrient agar dilution; type: cell-based; settings: Morganella morganii, A.236, 18 h
Method: as §1, §2, §3, §4

[10] = tested on: Pr. vulgaris 12-53; experiment: M.I.C. in vitro, nutrient agar dilution; type: cell-based; settings: Proteus vulgaris, 1253, 18 h
Method: as §1, §2, §3, §4

[11] = tested on: Providentia 0223; experiment: M.I.C. in vitro, nutrient agar dilution; type: cell-based; settings: 18 h
Method: as §1, §2, §3, §4

[12] = tested on: Ps. aeruginosa 72.345; experiment: M.I.C. in vitro, nutrient agar dilution; type: cell-based; settings: Pseudomonas aeruginosa, 72.345, 18 h
Method: as §1, §2, §3, §4

[13] = tested on: Ps. aeruginosa A.22; experiment: M.I.C. in vitro, nutrient agar dilution; type: cell-based; settings: Pseudomonas aeruginosa, A.22, 18 h
Method: as §1, §2, §3, §4

[14] = tested on: S. enteritidis Danysz; experiment: M.I.C. in vitro, nutrient agar dilution; type: cell-based; settings: Salmonella enterica, ENTERITIDIS, 18 h
Method: as §1, §2, §3, §4

[15] = tested on: S. oranienburg 1066; experiment: M.I.C. in vitro, nutrient agar dilution; type: cell-based; settings: Salmonella enterica, 1066, 18 h
Method: as §1, §2, §3, §4

[16] = tested on: Serratia; experiment: M.I.C. in vitro, nutrient agar dilution; type: cell-based; settings: 18 h
Method: as §1, §2, §3, §4

[17] = tested on: Sh. sonnei I.P.S.; experiment: M.I.C. in vitro, nutrient agar dilution; type: cell-based; settings: Shigella sonnei, 18 h; Table III; Sh. sonnei I.P.S.; read-out: M.I.C.
Method: as §1, §2, §3, §4

[18] = tested on: Staph. 209 P; experiment: M.I.C. in vitro, nutrient agar dilution; type: cell-based; settings: 18 h
Method: as §1, §2, §3, §4

[19] = tested on: Staph. 9.144; experiment: M.I.C. in vitro, nutrient agar dilution; type: cell-based; settings: 18 h
Method: as §1, §2, §3, §4

[20] = tested on: Strepto D.M. 19; experiment: M.I.C. in vitro, nutrient agar dilution; type: cell-based; settings: 18 h
Method: as §1, §2, §3, §4

[21] = tested on: Salm. typhi 0901; experiment: microbe, parasite or virus in culture; type: cell-based; settings: Salmonella enterica, 18 h; Table III; Salm. typhi 0901
Method: as §1, §2, §3, §4

[22] = tested on: Escherichia coli P 5101; experiment: Systemic infection in mice; type: in vivo; settings: P5101, po, 168 h
Method: (§5) The activity of the compounds according to the invention against systemic infections in mice, caused by Staphylococcus 50,774, Streptococcus pyogenes A 65, Pseudomonas aeruginosa No. 12 and Escherichia coli P 5101, has been studied.
(§6) The infections were set up by intraperitoneal injection of a suspension of the bacterial culture corresponding to the germ studied. The products were administered orally at the time of injection, and 6 hours later. […] Aureus and for 7 days for the other germs.
(§7) Oxolinic acid was used as the reference substance.

[23] = tested on: Pseudomonas aeruginosa No. 12; experiment: Systemic infection in mice; type: in vivo; settings: NO.12, po, 168 h
Method: as §5, §6, §7

[24] = tested on: Staph. aureus 50,774; experiment: Systemic infection in mice; type: in vivo; settings: Staphylococcus aureus, po, 336 h
Method: as §5, §6, §7

[25] = tested on: Strept. pyogenes A. 65; experiment: Systemic infection in mice; type: in vivo; settings: Streptococcus pyogenes, A.65, po, 168 h
Method: as §5, §6, §7

[26] = tested on: Escherichia coli P 5101; experiment: M.I.C. for germ used in experimental infection; type: cell-based; settings: P5101, 18 h
Method: as §1, §2, §3, §4

[27] = tested on: Pseudomonas aeruginosa No. 12; experiment: M.I.C. for germ used in experimental infection; type: cell-based; settings: NO.12, 18 h
Method: as §1, §2, §3, §4

[28] = tested on: Staph. aureus 50,774; experiment: M.I.C. for germ used in experimental infection; type: cell-based; settings: Staphylococcus aureus, 18 h
Method: as §1, §2, §3, §4

[29] = tested on: Strept. pyogenes A. 65; experiment: M.I.C. for germ used in experimental infection; type: cell-based; settings: Streptococcus pyogenes, A.65, 18 h
Method: as §1, §2, §3, §4

[30] = in vivo; settings: mouse, mice

Compound `CCn1cc(C(=O)O)c(=O)c2cc3c(cc21)OCO3` [Oxolinic acid, oxolinic acid, reference compound] has an MIC [1] of 0.4 µg/mL (≈ 1.53 µM), an MIC [2] of 0.1 µg/mL (≈ 0.383 µM) and an MIC [3] of 3.1 µg/mL (≈ 11.9 µM). For the same compound, the MIC [4] was 0.4 µg/mL (≈ 1.53 µM), the MIC [5] was 0.4 µg/mL (≈ 1.53 µM) and the MIC [6] was 0.1 µg/mL (≈ 0.383 µM). It also gave an MIC [7] of 0.1 µg/mL (≈ 0.383 µM), an MIC [8] of 0.4 µg/mL (≈ 1.53 µM) and an MIC [9] of 0.1 µg/mL (≈ 0.383 µM). For the same compound, the MIC [10] was 0.05 µg/mL (≈ 0.191 µM), the MIC [11] was 25 µg/mL (≈ 95.7 µM) and the MIC [12] was 6.2 µg/mL (≈ 23.7 µM). For the same compound, the MIC [13] was 12.5 µg/mL (≈ 47.9 µM), the MIC [14] was 0.8 µg/mL (≈ 3.06 µM) and the MIC [15] was 25 µg/mL (≈ 95.7 µM). The MIC [16] was 0.8 µg/mL (≈ 3.06 µM), the MIC [17] was 0.2 µg/mL (≈ 0.766 µM) and the MIC [18] was 0.8 µg/mL (≈ 3.06 µM). For the same compound, the MIC [19] was 0.8 µg/mL (≈ 3.06 µM), the MIC [20] was 25 µg/mL (≈ 95.7 µM) and the MIC [21] was 0.4 µg/mL (≈ 1.53 µM). The ED50 [22] was 17 mg/kg, the ED90 [22] was 45.1 mg/kg and the ED50 [23] was 70.1 mg/kg. For the same compound, the ED90 [23] was 142 mg/kg, the ED50 [24] was 53.2 mg/kg and the ED90 [24] was 111 mg/kg. The ED50 [25] was > 100 mg/kg, the ED90 [25] was > 100 mg/kg and the MIC [26] was 0.2 µg/mL (≈ 0.766 µM). The MIC [27] was 12.5 µg/mL (≈ 47.9 µM), the MIC [28] was 1.56 µg/mL (≈ 5.97 µM) and the MIC [29] was 100 µg/mL (≈ 383 µM). For the same compound, the LD50 ([30]; iv) was 177 mg/kg and the LD50 ([30]; po) was > 2000 mg/kg.
